For 24 compounds, IC50 results are on record in patent publication US8217066B2, “Compounds as lysophosphatidic acid receptor antagonists” (Amira Pharmaceuticals, Inc., priority 2009, dated 2012).

The subject of experiment [1] is A2058 human melanoma cells. Kind of experiment: LPA1 chemotaxis assay. Format: cell-based. The following applies: 100 nM LPA, read-out: inhibition of LPA-driven chemotaxis, IC50. As for the experimental part:
Chemotaxis of the A2058 human melanoma cells was measured using the Neuroprobe ChemoTx® System plates (8 μm pore size, 5.7 mm diameter sites). The filter sites were coated with 0.001% fibronectin (Sigma) in 20 mM Hepes, pH 7.4 and allowed to dry. A2058 cells were serum-starved for 24 hours, then harvested with Cell Stripper and resuspended in DMEM containing 0.1% fatty-acid-free bovine serum albumin (BSA) to a concentration of 1×10^6/ml. Cells were mixed with an equal volume of test compound (2×) in DMEM containing 0.1% fatty-acid-free BSA and incubated at 37° C. for 15 minutes. LPA (100 nM in DMEM containing 0.1% fatty-acid-free BSA) or vehicle was added to each well of the lower chamber and 50 μl of the cell suspension/test compound mix was applied to the upper portion of the ChemoTx plate. Plates were incubated at 37° C. for three hours and then the cells removed from the upper portion by rinsing with PBS and scraping. The filter was dried then stained with HEMA 3 Staining System (Fisher Scientific). The absorbance of the filter was read at 590 nm and IC50s were determined using Symyx Assay Explorer.

For a further experiment, the target named is T1, human LPA1 (Homo sapiens, UniProt Q92633).
T1 construct: the full-length cDNA for human LPA1 was obtained by PCR of the reverse transcription reaction; expressed in transfected cells
Kind of experiment: LPA1 calcium flux assay (HLPA1 Ca Flux). Format: cell-based. The settings on record: CHO cells stably expressing human LPA1, stimulated with 10 nM LPA. As for the experimental part: A 1.1 kb cDNA encoding the human LPA1 receptor was cloned from human lung. Human lung RNA (Clontech Laboratories, Inc. USA) was reverse transcribed using the RETROscript kit (Ambion, Inc.) and the full-length cDNA for human LPA1 was obtained by PCR of the reverse transcription reaction. The nucleotide sequence of the cloned human LPA1 was determined by sequencing and confirmed to be identical to the published human LPA1 sequence (An et al. Biochem. Biophys. Res. Commun. 231:619 (1997). The cDNA was cloned into the pcDNA5/FRT expression plasmid and transfected in CHO cells using lipofectamine 2000 (Invitrogen Corp., USA). Clones stably expressing human LPA1 were selected using hygromycin and identified as cells that show Ca-influx in response to LPA.
Human LPA1 or LPA3 expressing CHO cells are seeded at 20,000-45,000 cells per well in a 96-well poly-D-lysine coated plate one or two days before the assay. Prior to the assay, the cells are washed once with PBS and then cultured in serum-free media overnight. On the day of the assay, a calcium indicator dye (Calcium 4, Molecular Devices) in assay buffer (HBSS with Ca^2+ and Mg^2+ and containing 20 mM Hepes and 0.3% fatty-acid free human serum albumin) is added to each well and incubation continued for 1 hour at 37° C. […] of test compounds in 2.5% DMSO are added to the cells and incubation continued at room temperature for 30 minutes. Cells are the stimulated by the addition of 10 nM LPA and intracellular Ca^2+ measured using the Flexstation 3 (Molecular Devices). IC50s are determined using Graphpad prism analysis of drug titration curves.
On the technique in general: A change in cytosolic calcium serves as a functional read-out for many receptors and channels.

One may read the IC50 as the midpoint of a concentration-inhibition curve.

T1 sequence (Q92633 whole entry): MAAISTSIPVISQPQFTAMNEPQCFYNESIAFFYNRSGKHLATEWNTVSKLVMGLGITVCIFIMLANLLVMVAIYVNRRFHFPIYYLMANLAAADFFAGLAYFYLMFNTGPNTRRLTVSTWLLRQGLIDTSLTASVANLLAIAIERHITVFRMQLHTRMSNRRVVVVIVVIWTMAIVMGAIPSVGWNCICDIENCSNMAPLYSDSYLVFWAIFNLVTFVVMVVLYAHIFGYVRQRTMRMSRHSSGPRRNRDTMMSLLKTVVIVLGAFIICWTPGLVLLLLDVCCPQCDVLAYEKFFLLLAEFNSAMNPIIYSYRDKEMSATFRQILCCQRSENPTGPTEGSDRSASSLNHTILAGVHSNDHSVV

Take `Cc1noc(-c2ccc(-c3ccc(C4(C(=O)O)CC4)cc3)cc2)c1NC(C)CCc1ccccc1` (single isomer, unassigned) [Compound 51, 1-{4′-[3-Methyl-4-(1-methyl-3-phenyl-propylamino)-isoxazol-5-yl]-biphenyl-4-yl}-cyclopropanecarboxylic acid]: the IC50 in experiment [1] was < 100 nM.

For `Cc1noc(-c2ccc(-c3ccc(C4(C(=O)NS(C)(=O)=O)CC4)cc3)cc2)c1[C@H](O)COCc1ccccc1` [Compound 73, N-(1-{4′-[4-((S)-2-Benzyloxy-1-hydroxy-ethyl)-3-methyl-isoxazol-5-yl]-biphenyl-4-yl}-cyclopropanecarbonyl)-methanesulfonamide], the IC50 in experiment [1] is < 100 nM; on human LPA1, < 300 nM.

In the case of `Cc1noc(-c2ccc(-c3ccc(C4(C(=O)O)CC4)cc3)cc2)c1C(O)CSCc1ccccc1` (stereo not drawn) [Compound 38, 1-{4′-[4-(2-Benzylsulfanyl-1-hydroxy-ethyl)-3-methyl-isoxazol-5-yl]-biphenyl-4-yl}-cyclopropanecarboxylic acid], the IC50 in experiment [1] is < 100 nM; at human LPA1, < 300 nM.

`Cc1noc(-c2ccc(-c3ccc(C4(C(=O)O)CC4)cc3)cc2)c1NC(C)CCc1cccc(Cl)c1` (stereo not drawn) [Compound 41, 1-(4′-{4-[3-(3-Chloro-phenyl)-1-methyl-propylamino]-3-methyl-isoxazol-5-yl}-biphenyl-4-yl)-cyclopropanecarboxylic acid]: the IC50 in experiment [1] was < 100 nM.

Consider `Cc1noc(-c2ccc(-c3ccc(C4(C(=O)O)CC4)cc3)cc2)c1NC(C)CCc1cccc(Cl)c1` (single isomer, unassigned) [Compound 57, 1-(4′-{4-[3-(3-Chloro-phenyl)-1-methyl-propylamino]-3-methyl-isoxazol-5-yl}-biphenyl-4-yl)-cyclopropanecarboxylic acid], for which, in experiment [1], the IC50 is < 100 nM.

Take `Cc1noc(-c2ccc(-c3ccc(C4(C(=O)NS(C)(=O)=O)CC4)cc3)cc2)c1C(O)C(F)(F)CCc1ccccc1` (stereo not drawn) [Compound 76, N-(1-{4′-[4-(2,2-Difluoro-1-hydroxy-4-phenyl-butyl)-3-methyl-isoxazol-5-yl]-biphenyl-4-yl}-cyclopropanecarbonyl)-methanesulfonamide]: the figures for the IC50 (in experiment [1]; on human LPA1) were < 100 nM and < 300 nM, respectively.

`Cc1noc(-c2ccc(-c3ccc(C4(C(=O)O)CC4)cc3)cc2)c1C(O)COCc1ccccc1` (single isomer, unassigned) [Compound 47, 1-{4′-[4-(2-Benzyloxy-1-hydroxy-ethyl)-3-methyl-isoxazol-5-yl]-biphenyl-4-yl}-cyclopropanecarboxylic acid]: the IC50 in experiment [1] was < 100 nM.

For `Cc1noc(-c2ccc(-c3ccc(C4(C(=O)O)CC4)cc3)cc2)c1NC(C)CCc1ccc(Cl)cc1` (stereo not drawn) [Compound 54, 1-(4′-{4-[3-(4-Chloro-phenyl)-1-methyl-propylamino]-3-methyl-isoxazol-5-yl}-biphenyl-4-yl)-cyclopropanecarboxylic acid], the IC50 in experiment [1] is < 100 nM; on human LPA1 it was < 300 nM.

As for `Cc1noc(-c2ccc(-c3ccc(C4(C(=O)O)CC4)cc3)cc2)c1NC(C)CCc1cccc(F)c1` (stereo not drawn) [Compound 30, 1-(4′-{4-[3-(3-Fluoro-phenyl)-1-methyl-propylamino]-3-methyl-isoxazol-5-yl}-biphenyl-4-yl)-cyclopropanecarboxylic acid], the IC50 was < 100 nM in experiment [1] and < 300 nM at human LPA1.

Turning to `Cc1noc(-c2ccc(-c3ccc(C4(C(=O)O)CC4)cc3)cc2)c1C(O)COCc1ccccc1` (stereo not drawn) [Compound 42, 1-{4′-[4-(2-Benzyloxy-1-hydroxy-ethyl)-3-methyl-isoxazol-5-yl]-biphenyl-4-yl}-cyclopropanecarboxylic acid], the IC50 in experiment [1] was < 100 nM.

Take `Cc1noc(-c2ccc(-c3ccc(C4(C(=O)O)CC4)cc3)cc2)c1NC(C)CCc1ccccc1` (stereo not drawn) [Compound 4, 1-{4′-[3-Methyl-4-(1-methyl-3-phenyl-propylamino)-isoxazol-5-yl]-biphenyl-4-yl}-cyclopropanecarboxylic acid]: the IC50 in experiment [1] is < 100 nM.

For `Cc1noc(-c2ccc(-c3ccc(C4(C(=O)O)CC4)cc3)cc2)c1[C@H](O)CO[C@H](C)c1ccccc1` [Compound 49, 1-(4′-{4-[(5)-1-Hydroxy-2-((R)-1-phenyl-ethoxy)-ethyl]-3-methyl-isoxazol-5-yl}-biphenyl-4-yl)-cyclopropanecarboxylic acid], the IC50 in experiment [1] is < 100 nM; at human LPA1, < 300 nM.

In the case of `Cc1noc(-c2ccc(-c3ccc(C4(C(=O)O)CC4)cc3)cc2)c1COCCc1ccccc1` [Compound 8, 1-[4′-(3-Methyl-4-phenethyloxymethyl-isoxazol-5-yl)-biphenyl-4-yl]-cyclopropanecarboxylic acid], the half-inhibitory concentration (IC50) at human LPA1 is < 300 nM.

For `Cc1noc(-c2ccc(-c3ccc(C4(C(=O)O)CC4)cc3)cc2)c1CNCC(O)c1ccccc1` (stereo not drawn) [Compound 12, 1-(4′-{4-[(2-Hydroxy-2-phenyl-ethylamino)-methyl]-3-methyl-isoxazol-5-yl}-biphenyl-4-yl)-cyclopropanecarboxylic acid], at human LPA1, the IC50 fell in the range of 1000 to 50000 nM.

Turning to `Cc1noc(-c2ccc(-c3ccc(C4(C(=O)O)CC4)cc3)cc2)c1C(O)C(F)(F)CCc1ccc(C(F)(F)F)cc1` (stereo not drawn) [Compound 64, 1-(4′-{4-[2,2-Difluoro-1-hydroxy-4-(4-trifluoromethyl-phenyl)-butyl]-3-methyl-isoxazol-5-yl}-biphenyl-4-yl)-cyclopropanecarboxylic acid], the IC50 on human LPA1 is < 300 nM.

With `Cc1noc(-c2ccc(-c3ccc(C4(C(=O)O)CC4)cc3)cc2)c1C(O)C(F)(F)CCc1ccc(F)cc1` (stereo not drawn) [Compound 62, 1-(4′-{4-[2,2-Difluoro-4-(4-fluoro-phenyl)-1-hydroxy-butyl]-3-methyl-isoxazol-5-yl}-biphenyl-4-yl)-cyclopropanecarboxylic acid], the IC50 on human LPA1 is < 300 nM.

Take `Cc1noc(-c2ccc(-c3ccc(C4(C(=O)O)CC4)cc3)cc2)c1CCOC(C)c1ccccc1` (stereo not drawn) [Compound 14, 1-(4′-{3-Methyl-4-[2-(1-phenyl-ethoxy)-ethyl]-isoxazol-5-yl}-biphenyl-4-yl)-cyclopropanecarboxylic acid]: the IC50 at human LPA1 was < 300 nM.

As for `Cc1noc(-c2ccc(-c3ccc(C4(C(=O)O)CC4)cc3)cc2)c1C(O)C(C)(C)CCc1ccccc1` (stereo not drawn) [Compound 45, 1-{4′-[4-(1-Hydroxy-2,2-dimethyl-4-phenyl-butyl)-3-methyl-isoxazol-5-yl]-biphenyl-4-yl}-cyclopropanecarboxylic acid], the IC50 on human LPA1 was < 300 nM.

In the case of `Cc1noc(-c2ccc(-c3ccc(C4(C(=O)O)CC4)cc3)cc2)c1C(O)C(C)CCc1ccccc1` (stereo not drawn) [Compound 44, 1-{4′-[4-(1-Hydroxy-2-methyl-4-phenyl-butyl)-3-methyl-isoxazol-5-yl]-biphenyl-4-yl}-cyclopropanecarboxylic acid], the IC50 at human LPA1 was < 300 nM.

Take `Cc1noc(-c2ccc(-c3ccc(C4(C(=O)O)CC4)cc3)cc2)c1CCCCc1ccccc1` [Compound 6, 1-{4′-[3-Methyl-4-(4-phenyl-butyl)-isoxazol-5-yl]-biphenyl-4-yl}-cyclopropanecarboxylic acid]: the IC50 on human LPA1 is < 300 nM.

Regarding `Cc1noc(-c2ccc(-c3ccc(C4(C(=O)O)CC4)cc3)cc2)c1CNCCc1ccccc1` [Compound 5, 1-{4′-[3-Methyl-4-(phenethylamino-methyl)-isoxazol-5-yl]-biphenyl-4-yl}-cyclopropanecarboxylic acid], the IC50 at human LPA1 is 300 to 1000 nM.

Take `Cc1noc(-c2ccc(-c3ccc(C4(C(=O)O)CC4)cc3)cc2)c1CCOCc1cccc(Cl)c1` [Compound 16, 1-(4′-{4-[2-(3-Chloro-benzyloxy)-ethyl]-3-methyl-isoxazol-5-yl}-biphenyl-4-yl)-cyclopropanecarboxylic acid]: the IC50 at human LPA1 is < 300 nM.

For `Cc1noc(-c2ccc(-c3ccc(C4(C(=O)O)CC4)cc3)cc2)c1C(O)CC(C)(C)Cc1ccccc1` (stereo not drawn) [Compound 70, 1-{4′-[4-(1-Hydroxy-3,3-dimethyl-4-phenyl-butyl)-3-methyl-isoxazol-5-yl]-biphenyl-4-yl}-cyclopropanecarboxylic acid], the IC50 on human LPA1 was < 300 nM.

On to `Cc1noc(-c2ccc(-c3ccc(C4(C(=O)O)CC4)cc3)cc2)c1CCOCc1ccc(Cl)cc1` [Compound 17, 1-(4′-{4-[2-(4-Chloro-benzyloxy)-ethyl]-3-methyl-isoxazol-5-yl}-biphenyl-4-yl)-cyclopropanecarboxylic acid], for which the IC50 on human LPA1 is < 300 nM.
